Assay results as given in ChEMBL document CHEMBL2331252, “Facile one-pot synthesis of novel dispirooxindole-pyrrolidine derivatives and their antimicrobial and anticancer activity against A549 human lung adenocarcinoma cancer cell line” (Bioorg Med Chem Lett, 2013).
Values after ≈ are worked out from the molar mass of the structure shown. Active and inactive are the calls of the source. No cut-off for these calls is given here.

Tests used:
A549 [1] = assay: Cytotoxicity against human A549 cells assessed as cell death at 50 ug/ml by MTT assay; type: functional
Staphylococcus aureus [2] = assay: Antibacterial activity against methicillin-resistant Staphylococcus aureus at 1 mg/disc after 24 hrs by disc diffusion method; type: functional
Klebsiella pneumoniae [3] = assay: Antibacterial activity against Klebsiella pneumoniae MTCC 109 at 1 mg/disc after 24 hrs by disc diffusion method; type: functional
Micrococcus luteus [4] = assay: Antibacterial activity against Micrococcus luteus MTCC 106 after 24 hrs; type: functional; conditions: MTCC 106, 24 h
Salmonella typhimurium [5] = assay: Antibacterial activity against Salmonella typhimurium MTCC 1251 after 24 hrs; type: functional, Salmonella enterica subsp. enterica serovar Typhimurium
A549 [6] = assay: Cytotoxicity against human A549 cells assessed as cell death at 200 ug/ml by MTT assay; type: functional
Proteus vulgaris [7] = assay: Antibacterial activity against Proteus vulgaris MTCC 1771 at 1 mg/disc after 24 hrs by disc diffusion method; type: functional
Micrococcus luteus [8] = assay: Antibacterial activity against Micrococcus luteus MTCC 106 at 1 mg/disc after 24 hrs by disc diffusion method; type: functional
Shigella flexneri [9] = assay: Antibacterial activity against Shigella flexneri MTCC 1457 at 1 mg/disc after 24 hrs by disc diffusion method; type: functional
Salmonella typhimurium [10] = assay: Antibacterial activity against Salmonella typhimurium MTCC 1251 at 1 mg/disc after 24 hrs by disc diffusion method; type: functional, Salmonella enterica subsp. enterica serovar Typhimurium; conditions: for inhibition: Salmonella enterica subsp. enterica serovar Typhimurium
Shigella flexneri [11] = assay: Antibacterial activity against Shigella flexneri MTCC 1457 after 24 hrs; type: functional; conditions: MTCC 1457, 24 h
Staphylococcus aureus [12] = assay: Antibacterial activity against Staphylococcus aureus MTCC 96 at 1 mg/disc after 24 hrs by disc diffusion method; type: functional
Proteus vulgaris [13] = assay: Antibacterial activity against Proteus vulgaris MTCC 1771 after 24 hrs; type: functional
Klebsiella aerogenes [14] = assay: Antibacterial activity against Enterobacter aerogenes MTCC 111 after 24 hrs; type: functional
Staphylococcus aureus [15] = assay: Antibacterial activity against methicillin-resistant Staphylococcus aureus after 24 hrs; type: functional
Klebsiella pneumoniae [16] = assay: Antibacterial activity against Klebsiella pneumoniae MTCC 109 after 24 hrs; type: functional; conditions: MTCC 109, 24 h
[17] = Antifungal activity against Malassezia pachydermatis at 1 mg/disc after 48 hrs by disc diffusion method; type: functional
Staphylococcus aureus [18] = assay: Antibacterial activity against Staphylococcus aureus MTCC 96 after 24 hrs; type: functional; conditions: MTCC 96, 24 h
Candida albicans [19] = assay: Antifungal activity against Candida albicans MTCC 227 at 1 mg/disc after 48 hrs by disc diffusion method; type: functional
Candida albicans [20] = assay: Antifungal activity against Candida albicans MTCC 227 after 48 to 72 hrs; type: functional
Klebsiella aerogenes [21] = assay: Antibacterial activity against Enterobacter aerogenes MTCC 111 at 1 mg/disc after 24 hrs by disc diffusion method; type: functional
A549 [22] = assay: Cytotoxicity against human A549 cells assessed as cell death at 100 ug/ml by MTT assay; type: functional
[23] = Salmonella enterica, MTCC 1251, 24 h
[24] = Salmonella enterica subsp. enterica serovar Typhimurium

SMILES | Activity (A549 [1]) [%] | inhibition zone (IZ) (Staphylococcus aureus [2]) [mm] | inhibition zone (IZ) (Klebsiella pneumoniae [3]) [mm] | MIC (Micrococcus luteus [4]) [µg/mL] | MIC (Salmonella typhimurium [5]; [23]) [µg/mL] | Activity (A549 [6]) [%] | inhibition zone (IZ) (Proteus vulgaris [7]) [mm] | inhibition zone (IZ) (Micrococcus luteus [8]) [mm] | inhibition zone (IZ) (Shigella flexneri [9]) [mm] | MIC (Shigella flexneri [11]) [µg/mL] | inhibition zone (IZ) (Staphylococcus aureus [12]) [mm] | MIC (Proteus vulgaris [13]; MTCC 1771, 24 h) [µg/mL] | MIC (Staphylococcus aureus [15]) | MIC (Klebsiella pneumoniae [16]) [µg/mL] | inhibition [17] | MIC (Staphylococcus aureus [18]) [µg/mL] | inhibition zone (IZ) (Candida albicans [19]) [mm] | MIC (Candida albicans [20]) | inhibition zone (IZ) (Klebsiella aerogenes [21]) [mm] | Activity (A549 [22]) [%] | other results
CN1C[C@](C#N)(C(=O)c2c[nH]c3ccccc23)[C@]2(C(=O)Nc3ccccc32)[C@@]12C(=O)Nc1ccc(I)cc12 | 4.19 | 8 | 13 | 1000 (≈ 1630 µM) | 500 (≈ 815 µM) | 17.58 | 9 | 8 | 8 | 1000 (≈ 1630 µM) | 10 | 500 (≈ 815 µM) | 1000 µg/mL (≈ 1630 µM) | 250 (≈ 408 µM) | inactive | 500 (≈ 815 µM) | 10 | 500 µg/mL (≈ 815 µM) | 9 | 9.66 | inhibition zone (IZ) (Salmonella typhimurium [10]): 11 mm; MIC (Klebsiella aerogenes [14]): inactive
CN1C(=O)[C@@]2(c3cc(Br)ccc31)N(C)C[C@](C#N)(C(=O)c1c[nH]c3ccccc13)[C@]21C(=O)Nc2ccccc21 | 0.87 | 8 | 8 | 125 (≈ 215 µM) | 500 (≈ 861 µM) | 10.92 | 9 | 11 | 11 | 125 (≈ 215 µM) | 9 | 500 (≈ 861 µM) | 500 µg/mL (≈ 861 µM) | 500 (≈ 861 µM) | inactive | 500 (≈ 861 µM) | – | inactive | 10 | 2.07 | inhibition zone (IZ) (Salmonella typhimurium [10]): 9 mm; MIC (Klebsiella aerogenes [14]; MTCC 111, 24 h): 125 µg/mL (≈ 215 µM); inhibition (Candida albicans [19]): inactive
CN1C[C@](C#N)(C(=O)c2c[nH]c3ccccc23)[C@]2(C(=O)Nc3ccccc32)[C@@]12C(=O)Nc1ccc(Br)cc12 | 3.43 | 9 | 9 | 1000 (≈ 1770 µM) | 125 (≈ 221 µM) | 15.98 | 12 | 9 | 10 | 500 (≈ 883 µM) | 11 | 250 (≈ 441 µM) | 500 µg/mL (≈ 883 µM) | 500 (≈ 883 µM) | inactive | 500 (≈ 883 µM) | 11 | 500 µg/mL (≈ 883 µM) | 10 | 9.34 | inhibition zone (IZ) (Salmonella typhimurium [10]): 15 mm; MIC (Klebsiella aerogenes [14]): inactive
CN1C(=O)[C@@]2(c3ccccc31)N(C)C[C@](C#N)(C(=O)c1c[nH]c3ccccc13)[C@]21C(=O)Nc2ccccc21 | 1.71 | 11 | 13 | 250 (≈ 498 µM) | 500 (≈ 997 µM) | 13.99 | 14 | 11 | 12 | 250 (≈ 498 µM) | 13 | 125 (≈ 249 µM) | 500 µg/mL (≈ 997 µM) | 125 (≈ 249 µM) | inactive | 250 (≈ 498 µM) | 12 | 250 µg/mL (≈ 498 µM) | 8 | 7.22 | inhibition zone (IZ) (Salmonella typhimurium [10]): 10 mm; MIC (Klebsiella aerogenes [14]): inactive
CN1C(=O)[C@@]2(c3cc(I)ccc31)N(C)C[C@](C#N)(C(=O)c1c[nH]c3ccccc13)[C@]21C(=O)Nc2ccccc21 | 4.34 | 12 | 9 | 125 (≈ 199 µM) | 500 (≈ 797 µM) | 26.85 | 9 | 11 | 10 | 500 (≈ 797 µM) | 11 | 500 (≈ 797 µM) | 125 µg/mL (≈ 199 µM) | 500 (≈ 797 µM) | – | 125 (≈ 199 µM) | 9 | 500 µg/mL (≈ 797 µM) | 13 | 12.66 | inhibition zone (IZ) (Salmonella typhimurium [10]): 10 mm; MIC (Klebsiella aerogenes [14]; MTCC 111, 24 h): 125 µg/mL (≈ 199 µM); inhibition zone (IZ) [17]: 11 mm
Cc1ccc2c(c1)[C@]1(C(=O)N2C)N(C)C[C@](C#N)(C(=O)c2c[nH]c3ccccc23)[C@]12C(=O)Nc1ccccc12 | 0.66 | 8 | 11 | 500 (≈ 970 µM) | 500 (≈ 970 µM) | 15.12 | 12 | 10 | 11 | 125 (≈ 242 µM) | 9 | 125 (≈ 242 µM) | 500 µg/mL (≈ 970 µM) | 125 (≈ 242 µM) | inactive | 500 (≈ 970 µM) | 8 | 500 µg/mL (≈ 970 µM) | 13 | 10.73 | inhibition zone (IZ) (Salmonella typhimurium [10]): 9 mm; MIC (Klebsiella aerogenes [14]; MTCC 111, 24 h): 125 µg/mL (≈ 242 µM)
C=CCN1C(=O)[C@@]2(c3ccccc31)N(C)C[C@](C#N)(C(=O)c1c[nH]c3ccccc13)[C@]21C(=O)Nc2ccccc21 | 5.61 | 9 | 12 | 500 (≈ 948 µM) | 62.5 (≈ 118 µM) | 16 | 9 | 10 | 9 | 1000 (≈ 1900 µM) | 11 | 1000 (≈ 1900 µM) | 1000 µg/mL (≈ 1900 µM) | 125 (≈ 237 µM) | inactive | 500 (≈ 948 µM) | 9 | 500 µg/mL (≈ 948 µM) | – | 8.81 | inhibition zone (IZ) (Salmonella typhimurium [10]): 16 mm; MIC (Klebsiella aerogenes [14]): inactive; inhibition (Klebsiella aerogenes [21]): inactive
CCCCN1C(=O)[C@@]2(c3ccccc31)N(C)C[C@](C#N)(C(=O)c1c[nH]c3ccccc13)[C@]21C(=O)Nc2ccccc21 | 4.27 | 11 | 8 | 500 (≈ 920 µM) | 500 (≈ 920 µM) | 32.25 | – | 8 | 9 | 500 (≈ 920 µM) | 9 | – | 500 µg/mL (≈ 920 µM) | 500 (≈ 920 µM) | inactive | 500 (≈ 920 µM) | 8 | 500 µg/mL (≈ 920 µM) | 10 | 19.6 | inhibition (Proteus vulgaris [7]): inactive; inhibition zone (IZ) (Salmonella typhimurium [10]): 10 mm; MIC (Proteus vulgaris [13]): inactive; MIC (Klebsiella aerogenes [14]; MTCC 111, 24 h): 500 µg/mL (≈ 920 µM)
CN1C[C@](C#N)(C(=O)c2c[nH]c3ccccc23)[C@]2(C(=O)Nc3ccccc32)[C@@]12C(=O)Nc1ccc(F)cc12 | 3.6 | 10 | 8 | 500 (≈ 989 µM) | – | 16.79 | – | 9 | 9 | 500 (≈ 989 µM) | 12 | – | 500 µg/mL (≈ 989 µM) | 500 (≈ 989 µM) | inactive | 125 (≈ 247 µM) | 11 | 125 µg/mL (≈ 247 µM) | 9 | 10.82 | MIC (Salmonella typhimurium [5]; [24]): inactive; inhibition (Proteus vulgaris [7]): inactive; inhibition (Salmonella typhimurium [10]): inactive; MIC (Proteus vulgaris [13]): inactive; MIC (Klebsiella aerogenes [14]; MTCC 111, 24 h): 500 µg/mL (≈ 989 µM)
CN1C[C@](C#N)(C(=O)c2c[nH]c3ccccc23)[C@]2(C(=O)Nc3ccccc32)C12C(=O)c1cccc3cccc2c13 (some centres not stated) | 7.55 | – | 8 | 500 (≈ 957 µM) | – | 29.72 | 8 | 9 | 9 | 500 (≈ 957 µM) | 11 | 500 (≈ 957 µM) | inactive | 500 (≈ 957 µM) | inactive | 125 (≈ 239 µM) | 9 | 500 µg/mL (≈ 957 µM) | 10 | 21.61 | inhibition (Staphylococcus aureus [2]): inactive; MIC (Salmonella typhimurium [5]; [24]): inactive; inhibition (Salmonella typhimurium [10]): inactive; MIC (Klebsiella aerogenes [14]; MTCC 111, 24 h): 500 µg/mL (≈ 957 µM)
CN1C[C@](C#N)(C(=O)c2c[nH]c3ccccc23)[C@]2(C(=O)Nc3ccccc32)[C@@]12C(=O)Nc1ccccc12 | 17.46 | 10 | 12 | 500 (≈ 1030 µM) | – | 33.5 | 8 | 9 | 8 | 500 (≈ 1030 µM) | 8 | 500 (≈ 1030 µM) | 500 µg/mL (≈ 1030 µM) | 125 (≈ 256 µM) | inactive | 500 (≈ 1030 µM) | 9 | 500 µg/mL (≈ 1030 µM) | 9 | 20.91 | MIC (Salmonella typhimurium [5]; [24]): inactive; inhibition (Salmonella typhimurium [10]): inactive; MIC (Klebsiella aerogenes [14]; MTCC 111, 24 h): 500 µg/mL (≈ 1030 µM)
